Data on 38 molecules can be found in PubChem BioAssay AID743508 (Broad Institute, 2014).

Calls of active or inactive are those of the source. No rule for the calls is given here.

This test has as its target Drosophila melanogaster bursicon receptor LGR2 (rickets). Nature of the test: LGR2 bursicon receptor antagonists, dose response, cell-based, HEK293, CRE-luciferase, beta-gal normalized, dry powder, set 2 (AID 743508). As to conditions: HEK293 LGR2 CRE-luciferase cAMP reporter, antagonist.
For `CC(C)NC(=O)Nc1ccc2c(c1)C(=O)N([C@H](C)CO)C[C@@H](C)[C@H](CN(C)S(C)(=O)=O)OCCCC[C@H](C)O2`, the IC50 was > 35 µM (inactive). Next, `C[C@H](CO)N1C[C@H](C)[C@H](CN(C)C(=O)Nc2ccc(F)cc2)OCCCC[C@H](C)Oc2ccc(NC(=O)Nc3ccccc3)cc2C1=O`: < 35 µM. Next, `C[C@H]1CCCCO[C@@H](CN(C)C(=O)Nc2ccc(F)cc2)[C@@H](C)CN([C@@H](C)CO)C(=O)c2cc(NC(=O)C3CCCCC3)ccc2O1`: < 35 µM; `C[C@H](CO)N1C[C@H](C)[C@H](CN(C)C(=O)Cc2ccccc2)OCCCC[C@H](C)Oc2ccc(NC(=O)Nc3ccc(C(F)(F)F)cc3)cc2C1=O`: > 35 µM (inactive). Next, `COc1ccc(NC(=O)N(C)C[C@@H]2OCCCC[C@H](C)Oc3ccc(NC(=O)C4CCCCC4)cc3C(=O)N([C@H](C)CO)C[C@@H]2C)cc1`: < 35 µM; `C[C@H](CO)N1C[C@H](C)[C@H](CN(C)C(=O)Nc2ccc3c(c2)OCO3)OCCCC[C@H](C)Oc2ccc(NC(=O)C3CCCCC3)cc2C1=O`: < 35 µM. For `C[C@H](CO)N1C[C@H](C)[C@H](CN(C)C(=O)Nc2ccc(F)cc2)OCCCC[C@H](C)Oc2ccc(NC(=O)Nc3ccc(F)cc3)cc2C1=O`, the IC50 is < 35 µM. Next, `C[C@H](CO)N1C[C@H](C)[C@H](CN(C)C(=O)Nc2ccccc2)OCCCC[C@H](C)Oc2ccc(NC(=O)Nc3ccccc3)cc2C1=O`: < 35 µM; `C[C@@H]1CN([C@@H](C)CO)C(=O)c2cc(NS(C)(=O)=O)ccc2O[C@@H](C)CCCCO[C@@H]1CN(C)Cc1ccc(C(F)(F)F)cc1`: > 35 µM (inactive). As for `C[C@H](CO)N1C[C@H](C)[C@H](CN(C)C(=O)Nc2ccc(F)cc2)OCCCC[C@H](C)Oc2ccc(NC(=O)NC3CCCCC3)cc2C1=O`, the figure is < 35 µM; as for `COc1ccc(S(=O)(=O)Nc2ccc3c(c2)C(=O)N([C@@H](C)CO)C[C@H](C)[C@@H](CN(C)C(=O)Nc2cccc4ccccc24)OCCCC[C@H](C)O3)cc1`, > 35 µM (inactive). As for `C[C@H](CO)N1C[C@H](C)[C@H](CN(C)C(=O)Nc2ccccc2)OCCCC[C@H](C)Oc2ccc(NC(=O)Nc3ccc4c(c3)OCO4)cc2C1=O`, the figure is < 35 µM; as for `C[C@H]1CCCCO[C@@H](CN(C)S(=O)(=O)c2ccc(Cl)cc2)[C@@H](C)CN([C@@H](C)CO)C(=O)c2cc(NC(=O)NC3CCCCC3)ccc2O1`, < 35 µM; as for `C[C@H]1CCCCO[C@@H](CN(C)C(=O)Nc2ccccc2)[C@@H](C)CN([C@@H](C)CO)C(=O)c2cc(NC(=O)NC3CCCCC3)ccc2O1`, < 35 µM. Turning to `Cc1noc(C)c1S(=O)(=O)Nc1ccc2c(c1)C(=O)N([C@H](C)CO)C[C@H](C)[C@H](CN(C)C(=O)Nc1ccc(F)cc1)OCCCC[C@@H](C)O2`, the IC50 is > 35 µM (inactive). As for `C[C@H](CO)N1C[C@H](C)[C@H](CN(C)C(=O)Nc2cccc3ccccc23)OCCCC[C@H](C)Oc2ccc(NC(=O)C3CCCCC3)cc2C1=O`, the figure is < 35 µM; as for `C[C@H](CO)N1C[C@H](C)[C@H](CN(C)C(=O)Nc2ccc(C(F)(F)F)cc2)OCCCC[C@H](C)Oc2ccc(NC(=O)NC3CCCCC3)cc2C1=O`, < 35 µM.

With `C[C@H](CO)N1C[C@H](C)[C@H](CN(C)C(=O)Nc2ccc(F)cc2)OCCCC[C@H](C)Oc2ccc(NC(=O)C3CCCCC3)cc2C1=O`, the IC50 is < 35 µM. Turning to `COc1ccc(S(=O)(=O)N(C)C[C@@H]2OCCCC[C@H](C)Oc3ccc(NS(=O)(=O)c4ccc(F)cc4)cc3C(=O)N([C@@H](C)CO)C[C@@H]2C)cc1`, the IC50 was < 35 µM. Next, `C[C@H](CO)N1C[C@H](C)[C@H](CN(C)C(=O)Nc2cccc3ccccc23)OCCCC[C@H](C)Oc2ccc(NC(=O)NC3CCCCC3)cc2C1=O`: < 35 µM; `Cc1ccc(S(=O)(=O)Nc2ccc3c(c2)C(=O)N([C@H](C)CO)C[C@@H](C)[C@H](CN(C)S(=O)(=O)c2cccs2)OCCCC[C@@H](C)O3)cc1`: > 35 µM (inactive); `C[C@@H]1CCCCO[C@H](CN(C)CC2CCCCC2)[C@H](C)CN([C@H](C)CO)C(=O)c2cc(NS(=O)(=O)c3ccccc3)ccc2O1`: < 35 µM.

As to `COc1ccc(S(=O)(=O)Nc2ccc3c(c2)C(=O)N([C@H](C)CO)C[C@H](C)[C@H](CN(C)S(=O)(=O)c2ccc(F)cc2)OCCCC[C@@H](C)O3)cc1`, the IC50 is > 35 µM (inactive). Regarding `C[C@H](CO)N1C[C@H](C)[C@H](CN(C)C(=O)Nc2cccc3ccccc23)OCCCC[C@H](C)Oc2ccc(NC(=O)CCC(F)(F)F)cc2C1=O`, the IC50 was < 35 µM. As for `C[C@H](CO)N1C[C@H](C)[C@H](CN(C)C(=O)Nc2ccccc2)OCCCC[C@H](C)Oc2ccc(NC(=O)NC3CCCCC3)cc2C1=O`, the figure is < 35 µM; as for `C[C@H]1CCCCO[C@H](CN(C)C(=O)Nc2cccc3ccccc23)[C@@H](C)CN([C@@H](C)CO)C(=O)c2cc(NS(=O)(=O)c3cn(C)cn3)ccc2O1`, > 35 µM (inactive). Next, `C[C@H]1CCCCO[C@@H](CN(C)C(=O)Nc2ccc(C(F)(F)F)cc2)[C@@H](C)CN([C@@H](C)CO)C(=O)c2cc(NC(=O)CCC(F)(F)F)ccc2O1`: < 35 µM; `C[C@H](CO)N1C[C@H](C)[C@H](CN(C)C(=O)Nc2ccc3c(c2)OCO3)OCCCC[C@H](C)Oc2ccc(NC(=O)NC3CCCCC3)cc2C1=O`: < 35 µM.

As for `C[C@H](CO)N1C[C@H](C)[C@H](CN(C)C(=O)Nc2ccccc2)OCCCC[C@H](C)Oc2ccc(NC(=O)CCC(F)(F)F)cc2C1=O`, the IC50 was < 35 µM. `COc1ccc(S(=O)(=O)N(C)C[C@@H]2OCCCC[C@H](C)Oc3ccc(NS(=O)(=O)c4ccc(Cl)cc4)cc3C(=O)N([C@@H](C)CO)C[C@@H]2C)cc1`: the IC50 is < 35 µM. As for `C[C@H](CO)N1C[C@H](C)[C@H](CN(C)C(=O)Nc2ccccc2)OCCCC[C@H](C)Oc2ccc(NC(=O)C3CCCCC3)cc2C1=O`, the figure is < 35 µM.

As to `C[C@H](CO)N1C[C@H](C)[C@H](CN(C)C(=O)Nc2cccc3ccccc23)OCCCC[C@H](C)Oc2ccc(NC(=O)c3ccccc3)cc2C1=O`, the IC50 was < 35 µM. Next, `COc1ccc(NC(=O)Nc2ccc3c(c2)C(=O)N([C@H](C)CO)C[C@H](C)[C@H](CN(C)CC2CCCCC2)OCCCC[C@H](C)O3)cc1`: > 35 µM (inactive). For the molecule `C[C@H]1CCCCO[C@@H](CN(C)C(=O)Nc2ccc3c(c2)OCO3)[C@@H](C)CN([C@@H](C)CO)C(=O)c2cc(NC(=O)NC3CCCCC3)ccc2O1`, the IC50 was < 35 µM. Turning to `COc1ccc(S(=O)(=O)Nc2ccc3c(c2)C(=O)N([C@@H](C)CO)C[C@@H](C)[C@H](CN(C)C(=O)Nc2cccc4ccccc24)OCCCC[C@H](C)O3)cc1`, the IC50 is > 35 µM (inactive).

In the case of `COc1ccc(NC(=O)N(C)C[C@@H]2OCCCC[C@H](C)Oc3ccc(NC(=O)NC4CCCCC4)cc3C(=O)N([C@H](C)CO)C[C@@H]2C)cc1`, the IC50 was < 35 µM.

Turning to `C[C@H](CO)N1C[C@H](C)[C@H](CN(C)C(=O)Nc2ccc(C(F)(F)F)cc2)OCCCC[C@H](C)Oc2ccc(NC(=O)CCC(F)(F)F)cc2C1=O`, the IC50 was < 35 µM. Take `C[C@@H]1CN([C@@H](C)CO)C(=O)c2cc(NC(=O)c3ccncc3)ccc2O[C@@H](C)CCCCO[C@H]1CN(C)C(=O)Nc1cccc2ccccc12`: the IC50 is > 35 µM (inactive).
